Reference: ChEMBL document CHEMBL5376006, “Discovery of a Hidden Pocket beneath the NES Groove by Novel Noncovalent CRM1 Inhibitors” (J Med Chem, 2023)
The source made the active and inactive calls. The calls are words filed in the database; no cut-off is given here.

target: T1, Exportin-1 (Homo sapiens, UniProt O14980); experiment: Inhibition of CRM1 (unknown origin) binding to GST-tagged NES PKI at 100 uM incubated for 1.5 hrs by Coomassie brilliant blue staining based pull-down assay
T1 sequence (O14980 whole entry): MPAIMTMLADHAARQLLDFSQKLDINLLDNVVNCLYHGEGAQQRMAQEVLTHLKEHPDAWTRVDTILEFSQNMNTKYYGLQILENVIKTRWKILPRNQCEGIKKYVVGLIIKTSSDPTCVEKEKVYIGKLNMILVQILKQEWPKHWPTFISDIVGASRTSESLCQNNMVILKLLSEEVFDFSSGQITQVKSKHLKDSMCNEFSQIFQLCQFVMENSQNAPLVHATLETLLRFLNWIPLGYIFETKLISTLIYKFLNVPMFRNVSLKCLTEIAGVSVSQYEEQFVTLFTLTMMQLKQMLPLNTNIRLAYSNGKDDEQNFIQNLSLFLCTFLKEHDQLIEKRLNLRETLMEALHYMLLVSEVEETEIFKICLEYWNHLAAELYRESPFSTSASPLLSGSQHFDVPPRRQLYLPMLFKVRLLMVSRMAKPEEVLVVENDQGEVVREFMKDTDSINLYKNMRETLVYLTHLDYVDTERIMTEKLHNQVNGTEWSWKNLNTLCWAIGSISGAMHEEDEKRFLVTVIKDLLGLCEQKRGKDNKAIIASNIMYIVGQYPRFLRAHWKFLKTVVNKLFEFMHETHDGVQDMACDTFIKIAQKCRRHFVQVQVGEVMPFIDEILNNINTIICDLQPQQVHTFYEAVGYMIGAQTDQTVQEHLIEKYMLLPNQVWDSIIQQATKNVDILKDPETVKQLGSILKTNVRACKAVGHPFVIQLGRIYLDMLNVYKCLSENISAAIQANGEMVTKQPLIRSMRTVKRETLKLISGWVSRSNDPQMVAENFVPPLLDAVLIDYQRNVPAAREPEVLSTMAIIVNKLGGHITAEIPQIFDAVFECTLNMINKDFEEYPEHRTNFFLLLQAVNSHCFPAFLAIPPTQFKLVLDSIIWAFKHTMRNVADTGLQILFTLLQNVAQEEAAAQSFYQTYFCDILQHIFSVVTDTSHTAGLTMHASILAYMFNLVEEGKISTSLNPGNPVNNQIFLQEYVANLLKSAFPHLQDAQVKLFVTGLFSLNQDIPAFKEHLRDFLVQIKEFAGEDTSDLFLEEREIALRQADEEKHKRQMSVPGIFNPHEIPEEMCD

Row | Structure (SMILES) | inhibition
1 | COC(=O)c1ccc(N2CCN(c3cccc(C(F)(F)F)c3)CC2)c(NC(=O)c2ccc(Br)cc2)c1 | inactive
2 | COC(=O)c1ccc(N2CCN(c3cc(Cl)ccc3C)CC2)c(NC(=O)c2ccc(C(F)(F)F)cc2)c1 | inactive
3 | COC(=O)c1ccc(N2CCN(c3ccccc3C(F)(F)F)CC2)c(NC(=O)c2ccc(Br)cc2)c1 | inactive
4 | COC(=O)c1ccc(N2CCN(c3cc(C(F)(F)F)ccc3C)CC2)c(NC(=O)c2ccc(Cl)cc2)c1 | inactive
5 | COC(=O)c1ccc(N2CCN(c3cc(Cl)ccc3Cl)CC2)c(NC(=O)c2ccc(Cl)cc2)c1 | inactive
6 | COC(=O)c1ccc(N2CCN(c3cc(Cl)ccc3OC)CC2)c(NC(=O)c2ccc(Cl)cc2)c1 | inactive
7 | COC(=O)c1ccc(N2CCN(c3cc(Cl)ccc3C)CC2)c(NC(=O)c2ccc(Br)cc2)c1 | inactive
8 | COC(=O)c1ccc(N2CCN(c3cc(Cl)ccc3C)CC2)c(NC(=O)c2ccc(Cl)cc2)c1 | inactive

target: T1, Exportin-1; experiment: Inhibition of CRM1 (unknown origin) binding to GST-tagged NES PKI assessed as CRM1/NES band ratio incubated for 1.5 hrs by Coomassie brilliant blue staining based pull-down assay (reference value: 1.00); set-up: concentration or dose not given beside the values

Row | Structure (SMILES) | Ratio
9 | Cc1ccc(C)c(N2CCN(c3ccc(C(=O)O)cc3NC(=O)c3ccccc3C)CC2)c1 | 1.09
10 | O=C(O)c1ccc(N2CCN(c3ccc(F)cc3)CC2)c(NS(=O)(=O)c2cc(F)ccc2F)c1 | 0.83
11 | O=C(O)c1ccc(N2CCC(N3CCCCC3)CC2)c(NC(=O)c2ccc(F)cc2)c1 | 0.83
12 | COc1ccccc1N1CCN(c2ccc(C(=O)O)cc2NC(=O)c2ccc(Cl)cc2)CC1 | 0.88
13 | Cc1cccc(S(=O)(=O)Nc2cc(C(=O)O)ccc2N2CCN(c3ccc(Cl)cc3)CC2)c1 | 1.07
14 | Cc1ccc(C)c(N2CCN(c3ccc(C(=O)O)cc3NC(=O)c3ccc(F)cc3)CC2)c1 | 0.82
15 | O=C(O)c1ccc(N2CCN(c3ccccn3)CC2)c(NC(=O)c2ccc(Cl)cc2)c1 | 0.85
16 | Cc1cccc(C(=O)Nc2cc(C(=O)O)ccc2N2CCN(c3cccc(C)c3)C(C)C2)c1 (stereo unspecified) | 0.76
17 | O=C(O)c1ccc(N2CCN(Cc3cccc(F)c3)CC2)c(NC(=O)c2ccccc2)c1 | 0.72
18 | O=C(O)c1ccc(N2CCC(N3CCCCC3)CC2)c(NC(=O)c2cccc(Cl)c2)c1 | 0.91
19 | O=C(O)c1ccc(N2CCN(c3ccc(F)cc3)CC2)c(NC(=O)c2ccc(F)cc2)c1 | 1.15
20 | O=C(O)c1ccc(N2CCN(c3cccc(F)c3)CC2)c(NC(=O)c2ccc(Cl)cc2)c1 | 0.89
21 | O=C(O)c1ccc(N2CCN(CC(=O)N3CCCC3)CC2)c(NC(=O)c2ccccc2)c1 | 1.08
22 | Cc1ccc(C)c(S(=O)(=O)Nc2cc(C(=O)O)ccc2N2CCN(c3ccc(F)cc3)CC2)c1 | 0.96
23 | Cc1cccc(N2CCN(c3ccc(C(=O)O)cc3NC(=O)c3ccc(F)cc3)CC2C)c1 (stereo unspecified) | 0.87
24 | Cc1cccc(C(=O)Nc2cc(C(=O)O)ccc2N2CCC(CCN3CCCCC3)CC2)c1 | 0.81
25 | O=C(O)c1ccc(N2CCN(c3ccc(F)cc3)CC2)c(NC(=O)c2ccc(Br)cc2)c1 | 1.24
26 | Cc1cccc(C(=O)Nc2cc(C(=O)O)ccc2N2CCN(c3ccccc3F)CC2)c1 | 1.13
27 | Cc1cccc(C(=O)Nc2cc(C(=O)O)ccc2N2CCC(N3CCCCC3)CC2)c1 | 0.81
28 | O=C(O)c1ccc(N2CCN(c3ccc(F)cc3)CC2)c(NS(=O)(=O)c2cccc(F)c2)c1 | 0.85
29 | O=C(O)c1ccc(N2CCN(C3CCCCC3)CC2)c(NC(=O)c2ccc(F)cc2)c1 | 0.88
30 | Cc1cccc(S(=O)(=O)Nc2cc(C(=O)O)ccc2N2CCN(c3ccc(F)cc3)CC2)c1 | 0.84
31 | Cc1ccc(C)c(S(=O)(=O)Nc2cc(C(=O)O)ccc2N2CCN(c3ccccc3F)CC2)c1 | 0.95
32 | O=C(O)c1ccc(N2CCN(c3ccccn3)CC2)c(NC(=O)c2cccc(Cl)c2)c1 | 0.72
33 | O=C(O)c1ccc(N2CCN(c3ccccc3F)CC2)c(NC(=O)c2ccc(Br)cc2)c1 | 0.68
34 | O=C(O)c1ccc(N2CCN(c3ccc(F)cc3)CC2)c(NS(=O)(=O)c2ccc(F)c(F)c2)c1 | 0.88
35 | Cc1cccc(N2CCN(c3ccc(C(=O)O)cc3NC(=O)c3ccccc3)CC2C)c1 (stereo unspecified) | 0.81
36 | O=C(O)c1ccc(N2CCCN(c3ccc(Cl)nn3)CC2)c(NC(=O)c2ccccc2)c1 | 0.8
